Experimental data reported in ChEMBL document CHEMBL2407033, “Pin1 inhibitors: Pitfalls, progress and cellular pharmacology” (Bioorg Med Chem Lett, 2013).
Values belong to the molecule of their own block, whether it stands above or below them. Where a SMILES comes first, the peptide text is derived from it. Bridges are numbered along the chain shown (N, C = ends).

Columns and labels:
[1] = target: T1, Peptidyl-prolyl cis-trans isomerase NIMA-interacting 1 (Homo sapiens, UniProt Q13526); test: Inhibition of Pin1 in human MCF7 cells assessed as inhibition of etoposide-induced p53 transcription at 10 uM by luciferase reporter gene assay relative to control; format: cell-based
[2] = target: T1, Peptidyl-prolyl cis-trans isomerase NIMA-interacting 1; test: Inhibition of Pin1 (unknown origin)
[3] = target: T1, Peptidyl-prolyl cis-trans isomerase NIMA-interacting 1; test: Inhibition of human Pin1
[4] = target: T1, Peptidyl-prolyl cis-trans isomerase NIMA-interacting 1; test: Reversible inhibition of human Pin1
[5] = target: T1, Peptidyl-prolyl cis-trans isomerase NIMA-interacting 1; test: Inhibition of Pin1 (unknown origin) using Suc-Ala-Glu-cis-Pro-Phe-pNA as substrate
[6] = Growth inhibition of human […] cells; format: functional
[7] = target: T1, Peptidyl-prolyl cis-trans isomerase NIMA-interacting 1; test: Competitive inhibition of Pin1 (unknown origin) by Lineweaver-Burk plot analysis
[8] = target: T1, Peptidyl-prolyl cis-trans isomerase NIMA-interacting 1; test: Inhibition of GST-tagged Pin1 (unknown origin) using Suc-AEPF-pNA and WFYpSPR-pNA as substrate after 5 mins
[9] = target: Peptidyl-prolyl cis-trans isomerase NIMA-interacting 4 (Homo sapiens, UniProt Q9Y237); test: Inhibition of Par14 (unknown origin)
[10] = target: T1, Peptidyl-prolyl cis-trans isomerase NIMA-interacting 1; test: Inhibition of Pin1 (unknown origin) using Suc-Ala-Glu-Pro-Phe-MCA as substrate after 120 secs by fluorescence microtiter plate reader analysis
[11] = target: T1, Peptidyl-prolyl cis-trans isomerase NIMA-interacting 1; test: Inhibition of full length Pin1 (unknown origin) using WFY(pS)PR-pNA as substrate by spectrophotometric analysis
[12] = system: MEF; test: Growth inhibition of MEF expressing Pin1; format: functional; conditions: Mus musculus
[13] = Growth inhibition of Pin1-deficient MEF; format: cell-based; conditions: mouse, Pin1-deficient MEF cells
[14] = target: T1, Peptidyl-prolyl cis-trans isomerase NIMA-interacting 1; test: Binding affinity to GST-tagged Pin1 (unknown origin) by SPR spectroscopic analysis
[15] = target: T1, Peptidyl-prolyl cis-trans isomerase NIMA-interacting 1; test: Inhibition of Pin1 in human MCF7 cells assessed as inhibition of etoposide-induced p53 transcription at 30 uM by luciferase reporter gene assay relative to control; format: cell-based

T1 sequence (Q13526 whole entry): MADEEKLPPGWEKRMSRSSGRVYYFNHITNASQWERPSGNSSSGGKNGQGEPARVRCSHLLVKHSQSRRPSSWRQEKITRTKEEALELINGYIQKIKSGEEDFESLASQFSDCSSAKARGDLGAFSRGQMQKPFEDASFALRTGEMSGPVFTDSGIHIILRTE
Peptidyl-prolyl cis-trans isomerase NIMA-interacting 4, sequence (Q9Y237 whole entry): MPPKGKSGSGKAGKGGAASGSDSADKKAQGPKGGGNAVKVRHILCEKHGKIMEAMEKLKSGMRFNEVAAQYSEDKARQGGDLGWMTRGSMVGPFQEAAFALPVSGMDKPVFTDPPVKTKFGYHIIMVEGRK

Structure (SMILES): COc1ccc(F)cc1C(=O)[C@]1(C)CCc2ccccc21
- inhibition [1]: > 75%
- IC50 [2]: 5600 nM

Structure (SMILES): O=C(c1cc(-c2c(O)c([N+](=O)[O-])cc(F)c2[N+](=O)[O-])cc([N+](=O)[O-])c1O)C1CCc2ccccc21 (racemic)
- IC50 [4]: 200 nM

Structure (SMILES): S=C(SC(=S)N1CCCCC1)N1CCCCC1
- Ki [7]: 50 nM
- IC50 [2]: 4000 nM

Structure (SMILES): CC[C@H](C)[C@@H]1NC(=O)[C@H](CCC(=O)O)NC(=O)[C@H](C(C)C)NC(=O)[C@H](CCC(=O)O)NC(=O)[C@@H]2CCCN2C(=O)[C@H](Cc2ccc(O)cc2)NC(=O)[C@H](CCCN=C(N)N)NC(=O)[C@@H](N)CSSC[C@@H](C(=O)O)NC1=O [CYCLIC CRYPEVEIC] (H-CRYPEVEIC-OH; disulfide 1-9)
- IC50 [8]: 500 nM

Structure (SMILES): CC(=O)N[C@@H](C)C(=O)N[C@@H](C)C(=O)N[C@H](COP(=O)(O)O)C(=O)N1CCC[C@H]1C(=O)N[C@@H](CCCNC(=N)N)C(=O)Nc1ccc([N+](=O)[O-])cc1
- IC50 [4]: 1000 nM

Structure (SMILES): CCOC(=O)CN1C(=O)c2ccc3c4c(ccc(c24)C1=O)C(=O)N(CC(=O)OCC)C3=O
- IC50 [9]: 1500 nM
- IC50 [10]: 1500 nM

Structure (SMILES): O=C(N[C@@H](COP(=O)(O)O)CN1CCC[C@H]1C(=O)NCCc1c[nH]c2ccccc12)OCC1c2ccccc2-c2ccccc21
- IC50 [2]: 6000 nM

Structure (SMILES): O=C(O[C@@H]1Cc2c(O)cc(O)cc2O[C@@H]1c1cc(O)c(O)c(O)c1)c1cc(O)c(O)c(O)c1 [EPIGALOCATECHIN GALLATE]
- IC50 [11]: 20000 nM
- GI50 [12]: 7000 nM
- GI50 [13]: 14000 nM

Structure (SMILES): O=c1ccsn1-c1ccc(F)c(Cl)c1
- IC50 [14]: 6100 nM

Structure (SMILES): COc1ccc(F)cc1C(=O)[C@@]1(C)CCc2ccccc21
- inhibition [15]: 25%

Further lines, with some results ahead:

- IC50 [3]: 600 nM
Structure (SMILES): CCCCCc1ccc(CCC(=O)N[C@H](Cc2ccc(O)cc2)C(=O)N[C@@H](Cc2ccc(O)cc2)C(=O)N[C@@H](Cc2ccc3ccccc3c2)C(=O)O)cc1

- IC50 [3]: 4000 nM
Structure (SMILES): O=C(N[C@H](Cc1cccc(F)c1)c1nn[nH]n1)c1ccc2ccccc2c1

- IC50 [5]: 1500 nM
Structure (SMILES): CC(=O)N[C@@H](Cc1ccccc1)C(=O)N[C@@H](Cc1ccccc1)C(=O)N[C@H](/C=C1/CCC[C@H]1C(=O)N[C@@H](CCCNC(=N)N)C(N)=O)COP(=O)(O)O
- GI50 [6]: 8000 nM

- IC50 [3]: 890 nM
Structure (SMILES): O=C(O)C[C@@H](C/C=C/c1cccc(F)c1)NC(=O)c1ccc2ccccc2c1

- IC50 [2]: 25 nM
Structure (SMILES): Cc1oc(-c2ccc(CN)cc2)cc1C(=O)N[C@H](Cc1nc2ccccc2[nH]1)C(=O)O
